Columns and labels:
Format in all cases: binding
[1] = target: T1, human serotonin transporter (hSERT) (Homo sapiens, UniProt P31645); assay: Human serotonin transporter (hSERT) scintillation proximity assay, competition with [3H]-Citalopram; details: membranes of HEK-293 cells expressing recombinant hSERT, Ki by Cheng-Prusoff
T1 construct: expressed in transfected cells; host or cells: HEK-293
Description: The screening assay of this example was used to determine the affinity of ligands at the hSERT transporter by competition with [^3H]-Citalopram.
Scintillation Proximity Assay (SPA) works by bringing radioligand within close proximity to the bead's scintillant to stimulate light emission. In this assay, the receptor-containing membranes were pre-coupled to the SPA beads and the binding of the appropriate radioligand to the transporter was measured. The light emission was proportional to the amount of bound radioligand. Unbound radioligand produced no signal as a result of distant proximity to scintillant (lack of energy transfer). […]
(§1) Cell membranes were prepared using a membrane preparation buffer of 50 mM TRIS (pH 7.4). […] After a second centrifugation, the pellet was re-homogenized and brought to a final volume determined during the assay. […]
The % inhibition was calculated for each compound tested [(Compound counts per minute (CPM) at maximum concentration-Non-Specific CPM)/Total CPM*100]. […]
(§2) [formula] where max=total binding, min=non specific binding, x=concentration (M) of the tested compound and n=Hill slope. The inhibition dissociation constant (Ki) of each compound was determined according to the method of Cheng-Prusoff and then converted into negative logarithm (pKi) of the Ki.

[2] = target: T2, human norepinephrine transporter (hNET) (Homo sapiens, UniProt P23975); assay: Human norepinephrine transporter (hNET) scintillation proximity assay, competition with [3H]-Nisoxetine; details: membranes of HEK-293 cells expressing recombinant hNET, Ki by Cheng-Prusoff
T2 construct: expressed in transfected cells; host or cells: HEK-293 (Clone: HEK-hNET #2)
T2 sequence (P23975 whole entry): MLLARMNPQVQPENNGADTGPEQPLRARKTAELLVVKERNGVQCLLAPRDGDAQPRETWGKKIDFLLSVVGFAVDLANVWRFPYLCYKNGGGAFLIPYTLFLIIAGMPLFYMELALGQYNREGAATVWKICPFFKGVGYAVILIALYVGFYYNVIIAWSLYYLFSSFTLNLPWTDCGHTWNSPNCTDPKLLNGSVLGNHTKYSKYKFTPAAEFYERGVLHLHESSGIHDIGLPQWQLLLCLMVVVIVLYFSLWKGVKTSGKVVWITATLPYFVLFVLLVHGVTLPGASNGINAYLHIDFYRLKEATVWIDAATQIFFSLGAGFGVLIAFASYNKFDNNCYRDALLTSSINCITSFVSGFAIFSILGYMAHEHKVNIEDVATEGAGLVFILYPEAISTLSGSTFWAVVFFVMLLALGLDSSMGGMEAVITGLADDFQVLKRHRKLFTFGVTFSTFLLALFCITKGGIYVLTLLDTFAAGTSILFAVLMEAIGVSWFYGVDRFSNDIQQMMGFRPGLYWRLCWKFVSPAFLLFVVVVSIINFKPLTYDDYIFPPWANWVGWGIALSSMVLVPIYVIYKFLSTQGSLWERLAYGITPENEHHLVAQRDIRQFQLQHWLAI
Description: This assay was used to determine the affinity of ligands for the hNET transporter by competition with [^3H]-Nisoxetine. As in the hSERT assay of the above example, receptor-containing membranes were pre-coupled to the SPA beads and the binding of the appropriate radioligand to the transporter was measured. The light emission was proportional to the amount of bound radioligand, with unbound radioligand producing no signal.
HEK-293 cells (Tatsumi et al., Eur. J. Pharmacol. 1997, 30, 249-258) stably expressing recombinant hNET (Clone: HEK-hNET #2) were maintained with media (DMEM hi glucose with 10% FBS, 300 ug/ml G418 and 2 mM L-Glutamine) and incubated at 37° C. with 5% CO2. Cells were released from culture flasks using PBS for 1-2 minutes. […]
as §1
^3[H] […] The mixtures were allowed to stand at room temperature for one hour, and were then counted on a Packard TopCount LCS, a generic SPA counting protocol settings (Energy Range: Low, Efficiency Mode: Normal, Region A: 1.50-35.00, Region B: 1.50-256.00, Count Time (min.): 0.40, Background Subtract: none, Half-Life Correction: no, Quench Indicator: tSIS, Platemap blank subtraction: No, Cross talk reduction: Off). […]

[3] = target: T3, human dopamine transporter (hDAT) (Homo sapiens, UniProt Q01959); assay: Human dopamine transporter (hDAT) scintillation proximity assay, competition with [3H]-Vanoxerine; details: HEK-293 cells expressing recombinant hDAT, Ki by Cheng-Prusoff
T3 construct: expressed in transfected cells; host or cells: HEK-293
T3 sequence (Q01959 whole entry): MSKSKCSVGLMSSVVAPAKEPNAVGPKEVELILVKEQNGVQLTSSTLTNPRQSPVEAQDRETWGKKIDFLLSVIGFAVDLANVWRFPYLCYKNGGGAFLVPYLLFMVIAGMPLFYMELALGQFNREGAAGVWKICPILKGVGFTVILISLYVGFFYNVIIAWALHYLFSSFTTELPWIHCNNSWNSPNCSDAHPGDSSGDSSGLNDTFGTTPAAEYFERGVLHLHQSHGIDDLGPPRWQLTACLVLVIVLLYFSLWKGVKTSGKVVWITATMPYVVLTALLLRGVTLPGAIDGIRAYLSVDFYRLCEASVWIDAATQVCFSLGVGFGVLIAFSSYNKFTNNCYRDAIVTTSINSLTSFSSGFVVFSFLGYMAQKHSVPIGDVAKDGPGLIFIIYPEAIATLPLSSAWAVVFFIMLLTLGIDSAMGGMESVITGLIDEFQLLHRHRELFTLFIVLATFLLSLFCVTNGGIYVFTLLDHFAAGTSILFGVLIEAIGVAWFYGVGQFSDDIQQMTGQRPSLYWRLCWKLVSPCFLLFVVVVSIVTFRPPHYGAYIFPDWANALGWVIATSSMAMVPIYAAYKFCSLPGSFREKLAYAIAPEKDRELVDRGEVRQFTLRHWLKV
Description: This assay was used to determine the affinity of ligands for the dopamine transporter by competition with [^3H]-Vanoxerine.
HEK-293 cells (Tatsumi et al., Eur. J. Pharmacol. 1997, 30, 249-258) stably expressing recombinant hDAT were maintained with media (DMEM hi glucose with 10% FBS, […] G418 and 2 mM L-Glutamine) and incubated at 37° C. with 5% CO2. Cells were plated four hours prior to experiment by placing approximately 30,000 cells per well (in PBS) on white, opaque Cell-Tak coated 96 well plates. Extra buffer was apriated from the cell plates using an ELx405 plate washer.
^3[H] vanoxerine (GBR 12909) radioligand, specific activity approximately 59 Ci/mmol, stock concentration, 400 nM, and 50 mM Tris-HCl, 300 mM NaCl, (pH 7.4) buffers were used for Scintillation Proximity Assay IC50/Ki determination. […]
The % inhibition was calculated for each compound tested [(Compound CPM at maximum concentration-Non-Specific CPM)/Total CPM*100]. […]
as §2

T1 sequence (P31645 whole entry): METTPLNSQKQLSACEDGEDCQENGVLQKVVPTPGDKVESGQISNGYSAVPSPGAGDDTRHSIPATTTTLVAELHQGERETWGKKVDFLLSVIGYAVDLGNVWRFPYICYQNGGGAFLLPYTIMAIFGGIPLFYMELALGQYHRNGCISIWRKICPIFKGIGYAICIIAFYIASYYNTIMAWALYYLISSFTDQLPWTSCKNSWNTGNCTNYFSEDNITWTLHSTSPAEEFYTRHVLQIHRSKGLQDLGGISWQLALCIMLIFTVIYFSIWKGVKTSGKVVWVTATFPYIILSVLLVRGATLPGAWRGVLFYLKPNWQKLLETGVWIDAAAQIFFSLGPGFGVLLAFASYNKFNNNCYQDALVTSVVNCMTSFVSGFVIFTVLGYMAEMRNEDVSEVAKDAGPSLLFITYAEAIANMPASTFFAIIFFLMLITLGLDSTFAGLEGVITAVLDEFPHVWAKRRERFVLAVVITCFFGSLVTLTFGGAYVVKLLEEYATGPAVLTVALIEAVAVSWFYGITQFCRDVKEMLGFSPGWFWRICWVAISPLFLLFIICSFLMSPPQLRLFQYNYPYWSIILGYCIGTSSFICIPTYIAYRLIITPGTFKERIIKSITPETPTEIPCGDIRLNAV

Ki [1]: ~33.1 nM
Ki [2]: ~15.5 nM
Ki [3]: ~14.1 nM
SMILES: CNC1CCN(c2ccc3[nH]ccc3c2)c2ccccc21 (stereo not drawn) [[1-(1H-Indol-5-yl)-1,2,3,4-tetrahydro-quinolin-4-yl]-methyl-amine]
